For one data set, the target named is PDE4 (cAMP-specific). Description: Inhibition of PDE isoenzymes: PDE4. The data set is classed as biochemical. The settings on record: cytosol of human polymorphonuclear leukocytes (PMNL), cAMP as substrate, motapizone 1 μM. Here is the method:
(§1) 1. Inhibition of PDE Isoenzymes
(§2) The PDE activity was determined according to Thompson et al. (Adv Cycl Nucl Res 10: 69-92, 1979) with some modifications (Bauer and Schwabe, Naunyn-Schmiedeberg's Arch Pharmacol 311: 193198, 1980). The test samples contained 20 mM Tris (pH 7.4), 5 mM MgCl2, 0.5 μM cAMP or cGMP, [^3H]cAMP or [^3H]cGMP (about 30 000 cpm/sample), the PDE isoenzyme-specific additives described in greater detail below, the indicated concentrations of inhibitor and an aliquot of the enzyme solution in a total sample volume of 200 μl. Dilution series of the compounds according to the invention were prepared in DMSO and further diluted in the samples [1:100 (v/v)], to give the desired end concentration of the inhibitors at a DMSO concentration of 1% (v/v), which for its part has only a minute effect on PDE activity.
(§3) After preincubation at 37° C. for 5 minutes, the reaction was started by addition of the substrate (cAMP or cGMP). The samples were incubated at 37° C. for a further 15 min. The reaction was terminated by addition of 50 μl 0.2 N HCl. After cooling on ice for 10 minutes and addition of 25 μg 5′-nucleotidase (snake venom from Crotalus atrox), the mixture was again incubated at 37° C. for 10 min and the samples were then applied to QAE Sephadex A-25 columns (sample volume 1 ml). The columns were eluted with 2 ml of 30 mM ammonium formate (pH 6.0). The radioactivity of the eluate was measured and corrected by the corresponding blank values (measured in the presence of denatured protein); the blank values were less than 5% of the total radioactivity. In no case did the proportion of hydrolyzed nucleotide exceed 30% of the original substrate concentration.
PDE4 (cAMP-specific) was investigated in the cytosol of human polymorphonuclear leukocytes (PMNL) [isolated from leukocyte concentrates, see Schudt et al., Arch Pharmacol 1991: 344, 682-690] using cAMP as substrate. The PDE3 inhibitor motapizone (1 μM) was used to suppress the PDE3 activity emanating from contaminated platelets.
(§4) The IC50 values were determined from the concentration-inhibition curves by nonlinear regression.

For another data set, the target named is T1, PDE3 (cGMP-inhibited) (Homo sapiens, UniProt Q14432).
T1 construct: investigated in homogenates of human platelets; from tissue; host or cells: homogenates of human platelets
T1 sequence (Q14432 whole entry): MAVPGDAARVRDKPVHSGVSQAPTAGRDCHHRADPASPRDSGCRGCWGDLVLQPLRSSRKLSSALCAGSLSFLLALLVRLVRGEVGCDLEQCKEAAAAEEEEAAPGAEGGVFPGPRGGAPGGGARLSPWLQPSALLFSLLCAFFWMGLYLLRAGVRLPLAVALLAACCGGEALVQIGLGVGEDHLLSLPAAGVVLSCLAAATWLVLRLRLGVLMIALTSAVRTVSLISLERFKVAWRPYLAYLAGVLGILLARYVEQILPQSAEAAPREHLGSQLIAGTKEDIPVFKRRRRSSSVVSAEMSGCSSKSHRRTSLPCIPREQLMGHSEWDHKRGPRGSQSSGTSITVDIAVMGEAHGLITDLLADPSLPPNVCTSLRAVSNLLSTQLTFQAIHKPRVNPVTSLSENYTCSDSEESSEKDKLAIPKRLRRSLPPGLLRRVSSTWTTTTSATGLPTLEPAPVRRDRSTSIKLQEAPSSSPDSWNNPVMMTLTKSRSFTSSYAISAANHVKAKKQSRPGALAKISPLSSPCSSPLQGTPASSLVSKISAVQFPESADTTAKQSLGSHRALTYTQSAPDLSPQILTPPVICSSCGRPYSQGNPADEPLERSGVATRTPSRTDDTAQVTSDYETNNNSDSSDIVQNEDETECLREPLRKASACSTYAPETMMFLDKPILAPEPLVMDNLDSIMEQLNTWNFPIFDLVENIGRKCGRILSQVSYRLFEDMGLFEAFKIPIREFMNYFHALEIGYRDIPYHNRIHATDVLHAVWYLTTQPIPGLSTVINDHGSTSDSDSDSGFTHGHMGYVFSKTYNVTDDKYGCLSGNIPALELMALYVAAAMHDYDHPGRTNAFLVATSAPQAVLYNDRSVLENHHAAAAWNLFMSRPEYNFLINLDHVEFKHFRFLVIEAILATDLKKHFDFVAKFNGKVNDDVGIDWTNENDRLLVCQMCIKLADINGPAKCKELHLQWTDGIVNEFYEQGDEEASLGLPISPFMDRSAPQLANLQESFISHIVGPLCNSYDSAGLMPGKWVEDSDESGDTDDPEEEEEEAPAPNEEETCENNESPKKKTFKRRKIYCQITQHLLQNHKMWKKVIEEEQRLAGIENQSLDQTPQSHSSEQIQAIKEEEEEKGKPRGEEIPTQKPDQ
Description: Inhibition of PDE isoenzymes: PDE3. The class given is biochemical. The settings on record: homogenates of human platelets, cAMP or cGMP as substrate; read-out: PDE3 [-log IC50, mol/l] (converted). The protocol: as §1, §2, §3
PDE3 (cGMP-inhibited) was investigated in homogenates of human platelets (see Schudt et al., Biochem Pharmacol 1991: 42, 153-162) using cAMP or cGMP as substrate.
as §4

Where a name gives a salt, the structure may show the parent alone.

The melting point is the temperature of the solid-liquid transition. `CCOc1cc2c(cc1OC)C(c1ccc(C(=O)NC(=N)N(C)CCO)cc1)=NC1CCN(C)CC21` (stereo not drawn) (as salt: hydrochloride) [Compound 4, N′-{1-[4-((+)-cis-9-Ethoxy-8-methoxy-2-methyl-1,2,3,4,4a,10b-hexahydro[c][1,6]naphthyridin-6-yl)phenyl]methanoyl}-N-(2-hydroxyethyl)-N-methylguanidine dihydrochloride] displayed a melting point of 172 to 179 °C.
The compound `CCOc1cc2c(cc1OC)C(c1ccc(C(=O)N=C(N)N3CCN(C)CC3)cc1)=NC1CCN(C)CC21` (stereo not drawn) (as salt: hydrochloride) [Compound 6, N-[1-Amino-1-(4-methylpiperazin-1-yl)methylene]-4-((+)-cis-9-ethoxy-8-methoxy-2-methyl-1,2,3,4,4a,10b-hexahydro[c][1,6]naphthyridin-6-yl)benzamide dihydrochloride] showed a melting point of 209 to 215 °C.
`CCOc1cc2c(cc1OC)C(c1ccc(C(=O)NC(=N)N3CCCC3)cc1)=N[C@H]1CCN(C)C[C@@H]21` (relative stereo) [Compound 11, 4-((cis)-9-Ethoxy-8-methoxy-2-methyl-1,2,3,4,4a,10b-hexahydro-benzo[c][1,6]naphthyridin-6-yl)-N-(1-imino-1-pyrrolidin-1-yl-methyl)-benzamide] gave a melting point of 145 to 152 °C. At PDE4 (cAMP-specific), the “PDE4 [-log IC50, mol/l]” value was determined as 8.41. For the same compound, the IC50 on PDE3 (cGMP-inhibited) is 550 nM.
`CCOc1cc2c(cc1OC)C(c1ccc(C(=O)NC(=NC)N(C)C)cc1)=N[C@H]1CCN(C)C[C@@H]21.Cl` (relative stereo) [Compound 13, N′-{1-[4-((cis)-9-Ethoxy-8-methoxy-2-methyl-1,2,3,4,4a,10b-hexahydro-benzo[c][1,6]naphthyridin-6-yl)-phenyl]-methanoyl}-N,N,N″-trimethyl-guanidine hydrochloride] had a melting point of 143 to 150 °C. Besides, the “PDE4 [-log IC50, mol/l]” value on PDE4 (cAMP-specific) was found to be 9.34. For the same compound, the IC50 at PDE3 (cGMP-inhibited) is 91.2 nM.
For `CCOc1cc2c(cc1OC)C(c1ccc(C(=O)N=C(N(C)C)N(C)C)cc1)=NC1CCN(C)CC21` (single isomer, unassigned) (as salt: hydrochloride) [Compound 5, N″{1-[4-((−)-cis-9-Ethoxy-8-methoxy-2-methyl-1,2,3,4,4a,10b-hexahydro[c][1.6]naphthyridin-6-yl)phenyl]methanoyl}-N,N,N′,N′-tetramethylguanidine hydrochloride], the melting point lay in the range of 169 to 175 °C.
The compound `CCOc1cc2c(cc1OC)C(c1ccc(C(=O)NC(=N)N(C)C)cc1)=NC1CC[N+](C)([O-])CC21` (single isomer, unassigned) [Compound 22, N′-{1-[4-((−)-cis-9-Ethoxy-8-methoxy-2-methyl-2-oxy-1,2,3,4,4a,10b-hexahydro-benzo[c][1,6]naphthyridin-6-yl)-phenyl]-methanoyl}-N,N-dimethyl-guanidine] displayed a melting point of 220 to 224 °C. Further, the “PDE4 [-log IC50, mol/l]” value on PDE4 (cAMP-specific) was determined as 7.71. The IC50 at PDE3 (cGMP-inhibited) was 676 nM.
In the case of `CCOc1cc2c(cc1OC)C(c1cccc(C(=O)NC(=N)N(C)C)c1)=NC1CCN(C)CC21` (stereo not drawn) [Compound 10, N′-{1-[3-(cis)-9-Ethoxy-8-methoxy-2-methyl-1,2,3,4,4a,10b-hexahydro-benzo[c][c][1,6]naphthyridin-6-yl)-phenyl]-methanoyl}-N,N-dimethyl-guanidine], the melting point is 186 to 188 °C. At PDE4 (cAMP-specific), the “PDE4 [-log IC50, mol/l]” value amounted to 8.15. The IC50 on PDE3 (cGMP-inhibited) was 891 nM.

For the origin of these results see patent publication US6936622B2, “6-phenylbenzonaphthyridines” (Altana Pharma AG, priority 2001, dated 2005).
